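These data come from cells grown in 96-well plates and exposed to compound for 48 hours at five concentrations. GI50 is the concentration that inhibits growth by half.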 Calls of active or inactive are those of the source. No stated cut-off is given here; in the data, active = GI50 up to about 1.1 µM and inactive = higher.
Legend:
Experiment in all cases: NCI tumour cell line growth inhibition, 48 h
MDA-MB-435 = system: MDA-MB-435
HL-60 = system: HL-60
LOX IMVI = system: LOX IMVI
COLO 205 = system: COLO 205
SF-539 = system: SF-539
NCI-H460 = system: NCI-H460
PC-3 = system: PC-3
MOLT-4 = system: MOLT-4
IGROV-1 = system: IGROV-1
HOP-62 = system: HOP-62
Malme-3M = system: Malme-3M
SNB-75 = system: SNB-75
T47D = system: T47D
EKVX = system: EKVX
MCF7 = system: MCF7
CCRF-CEM = system: CCRF-CEM
KM12 = system: KM12
RPMI-8226 = system: RPMI-8226
NCI-H226 = system: NCI-H226

SMILES | GI50 (MDA-MB-435) | GI50 (HL-60) | GI50 (LOX IMVI) | GI50 (COLO 205) | GI50 (SF-539) | GI50 (NCI-H460) | GI50 (PC-3) | GI50 (MOLT-4) | GI50 (IGROV-1) | GI50 (HOP-62) | GI50 (Malme-3M) | GI50 (SNB-75) | GI50 (T47D) | GI50 (EKVX) | GI50 (MCF7) | GI50 (CCRF-CEM) | GI50 (KM12) | GI50 (RPMI-8226) | GI50 (NCI-H226)
COP(=O)(/C=C/c1cc(C(=O)OCc2ccccc2)n(S(=O)(=O)c2ccccc2)c1)OC | > 100 µM (inactive) | > 100 µM (inactive) | > 100 µM (inactive) | > 100 µM (inactive) | > 100 µM (inactive) | > 100 µM (inactive) | > 100 µM (inactive) | > 100 µM (inactive) | > 100 µM (inactive) | > 100 µM (inactive) | > 100 µM (inactive) | 57.1 µM (inactive) | > 100 µM (inactive) | > 100 µM (inactive) | > 100 µM (inactive) | > 100 µM (inactive) | > 100 µM (inactive) |  | 
c1cc(-c2ccsc2-c2ccsc2)cs1 | 36.6 µM (inactive) | 37.5 µM (inactive) | 55.3 µM (inactive) | > 87.1 µM (inactive) | > 100 µM (inactive) | > 100 µM (inactive) | > 100 µM (inactive) | 25.2 µM (inactive) | > 79.3 µM (inactive) | 77.3 µM (inactive) | 26.9 µM (inactive) | 44.5 µM (inactive) | 58.1 µM (inactive) | > 100 µM (inactive) | > 60.4 µM (inactive) | 50.1 µM (inactive) | 37.3 µM (inactive) | 29.9 µM (inactive) | 
CCOP(=O)(OCC)C(N)c1ccc(Cl)cc1 (stereo not drawn) | > 100 µM (inactive) | > 100 µM (inactive) | > 100 µM (inactive) | > 100 µM (inactive) | > 100 µM (inactive) | > 100 µM (inactive) | > 100 µM (inactive) | > 100 µM (inactive) | > 100 µM (inactive) |  | > 100 µM (inactive) |  | > 100 µM (inactive) | > 100 µM (inactive) | > 100 µM (inactive) | > 100 µM (inactive) | > 100 µM (inactive) | > 100 µM (inactive) | 
O=C1Nc2ccc(S(=O)(=O)O)cc2/C1=C1/Nc2ccc(Br)cc2C1=O | > 100 µM (inactive) | > 100 µM (inactive) | > 100 µM (inactive) | > 100 µM (inactive) |  | > 100 µM (inactive) | > 100 µM (inactive) | > 100 µM (inactive) | 19.1 µM (inactive) | > 100 µM (inactive) | > 100 µM (inactive) | > 100 µM (inactive) | > 100 µM (inactive) | > 100 µM (inactive) | 72.8 µM (inactive) | > 100 µM (inactive) | > 100 µM (inactive) | > 100 µM (inactive) | > 100 µM (inactive)
CCOC(=O)Nc1cc2c(c(N)n1)N=C(c1ccc3ccccc3c1)CN2 | < 0.01 µM (active) | 0.0167 µM (active) | 0.0559 µM (active) | 0.499 µM (active) | 0.08 µM (active) | 0.0918 µM (active) | 0.0407 µM (active) | 0.0226 µM (active) | 0.644 µM (active) | 0.0564 µM (active) | 0.292 µM (active) | 0.111 µM (active) | 22.8 µM (inactive) | 2.51 µM (inactive) | 0.192 µM (active) | 0.015 µM (active) | 0.0715 µM (active) |  | 0.34 µM (active)
Cc1ccc(O)c(-c2cc(-c3cccc(Br)c3)c(C#N)c(N)n2)c1 | 16.3 µM (inactive) | 30 µM (inactive) | 16.3 µM (inactive) | 18.5 µM (inactive) | 29.1 µM (inactive) | 19.6 µM (inactive) | 17.7 µM (inactive) | 20.1 µM (inactive) | 11.7 µM (inactive) | 34.6 µM (inactive) | 23.5 µM (inactive) |  | 17.7 µM (inactive) | 14.8 µM (inactive) | 16.3 µM (inactive) |  | 19.2 µM (inactive) | 11.5 µM (inactive) | 17.5 µM (inactive)
CC1=NN(c2ccc(S(=O)(=O)O)cc2)C2(C1)SCC(=O)N2c1nc2ccccc2s1 (stereo not drawn) | > 100 µM (inactive) | 0.195 µM (active) | 66.1 µM (inactive) | > 100 µM (inactive) | > 100 µM (inactive) | > 100 µM (inactive) | > 100 µM (inactive) | 46.9 µM (inactive) | > 100 µM (inactive) | > 100 µM (inactive) | > 100 µM (inactive) | > 100 µM (inactive) | > 100 µM (inactive) | > 100 µM (inactive) | > 100 µM (inactive) |  | > 100 µM (inactive) | > 100 µM (inactive) | > 100 µM (inactive)
O=C(O)C1CC=CCC1C(=O)Nc1cccc(O)c1 (stereo not drawn) | > 100 µM (inactive) | > 100 µM (inactive) | > 100 µM (inactive) | > 100 µM (inactive) | > 100 µM (inactive) | > 100 µM (inactive) | > 100 µM (inactive) | > 100 µM (inactive) | > 100 µM (inactive) | > 100 µM (inactive) | > 100 µM (inactive) | > 100 µM (inactive) | > 100 µM (inactive) | > 100 µM (inactive) | > 100 µM (inactive) |  | > 100 µM (inactive) | > 100 µM (inactive) | > 100 µM (inactive)
CCOC(=O)C1=c2[nH]c3cccc4cccc(c43)n2C(=O)CC1 | > 100 µM (inactive) | 17.3 µM (inactive) | 25.4 µM (inactive) | 43.8 µM (inactive) |  | > 100 µM (inactive) | 93.8 µM (inactive) | > 100 µM (inactive) | 49.4 µM (inactive) | > 100 µM (inactive) |  | > 100 µM (inactive) | 22.5 µM (inactive) | > 100 µM (inactive) | 36.2 µM (inactive) | 24.3 µM (inactive) | 26 µM (inactive) | > 100 µM (inactive) | 
O=C(Cn1c(C(=O)/C=C/c2ccc(Cl)cc2)nc2ccccc21)c1ccc(Cl)cc1 | 17.1 µM (inactive) | 10.1 µM (inactive) | 16 µM (inactive) | 16.5 µM (inactive) | 18.3 µM (inactive) | 10.9 µM (inactive) | 22.5 µM (inactive) | 2.26 µM (inactive) | 16.7 µM (inactive) | 16.4 µM (inactive) | 20.9 µM (inactive) |  | 28.6 µM (inactive) | 26.5 µM (inactive) | 15.2 µM (inactive) | 2.7 µM (inactive) | 7.26 µM (inactive) | 6.18 µM (inactive) | 21.4 µM (inactive)
CC12c3c4cccc3Oc3cc(N)cc(c31)Oc1cc(N)cc(c12)O4 | 1.24 µM (inactive) |  | 6 µM (inactive) | 3.29 µM (inactive) | 2.96 µM (inactive) | 3.48 µM (inactive) | 3.58 µM (inactive) | 5.13 µM (inactive) | 3.44 µM (inactive) | 5.75 µM (inactive) | 2.99 µM (inactive) | 3.77 µM (inactive) | 9.98 µM (inactive) | 3.38 µM (inactive) | 4.37 µM (inactive) | 0.736 µM (active) | 4.26 µM (inactive) | 5.93 µM (inactive) | 5.62 µM (inactive)
COc1ccc(N2C(=O)C3c4[nH]c5ccc(OC)cc5c4C4CCC(C(C)C)CC4C3C2=O)cc1 (stereo not drawn) | > 100 µM (inactive) | 55.2 µM (inactive) | > 100 µM (inactive) | > 100 µM (inactive) |  | 27.5 µM (inactive) | > 100 µM (inactive) | 28.8 µM (inactive) | > 38 µM (inactive) | 12 µM (inactive) |  | 17.7 µM (inactive) | > 100 µM (inactive) | > 93.3 µM (inactive) | > 100 µM (inactive) | 7.73 µM (inactive) | > 100 µM (inactive) | > 100 µM (inactive) | > 100 µM (inactive)
CN1B(c2ccccc2)N(C)C(=O)N(C)C1=O | > 100 µM (inactive) | > 100 µM (inactive) |  | > 100 µM (inactive) | > 100 µM (inactive) | > 100 µM (inactive) | > 100 µM (inactive) |  | > 100 µM (inactive) |  | > 100 µM (inactive) | 18.4 µM (inactive) | > 100 µM (inactive) | > 100 µM (inactive) | > 100 µM (inactive) | > 100 µM (inactive) | > 100 µM (inactive) | > 100 µM (inactive) | > 100 µM (inactive)
CC1=CC(=O)[C@@H](O)[C@]2(C)[C@H]3[C@@]4(O)OC[C@]35[C@H]([C@@H](C)[C@H]4O)[C@@H](O)C(=O)O[C@@H]5C[C@@H]12 | 0.232 µM (active) |  | 0.0895 µM (active) | 0.543 µM (active) | 0.0743 µM (active) | 0.214 µM (active) | 0.293 µM (active) | 1.55 µM (inactive) | 0.106 µM (active) | 0.21 µM (active) | 0.0438 µM (active) | 0.0706 µM (active) | 0.225 µM (active) | 0.771 µM (active) | 0.0382 µM (active) | 0.261 µM (active) | 0.202 µM (active) | 0.445 µM (active) | 0.194 µM (active)
N/N=C(\C(=O)Nc1ccc(Cl)cc1Cl)C(c1cnc2ccccc2n1)[N+](=O)[O-] (stereo not drawn) | > 100 µM (inactive) | > 100 µM (inactive) | > 100 µM (inactive) |  | > 100 µM (inactive) | > 100 µM (inactive) | > 100 µM (inactive) |  | 8.47 µM (inactive) | > 100 µM (inactive) | > 100 µM (inactive) | > 100 µM (inactive) | > 100 µM (inactive) | > 100 µM (inactive) | > 100 µM (inactive) | > 100 µM (inactive) | > 100 µM (inactive) | > 100 µM (inactive) | > 100 µM (inactive)
C#Cc1cc(-c2nc3ccccc3s2)ccc1N | 19.5 µM (inactive) | 24.7 µM (inactive) | 13.7 µM (inactive) | 17.5 µM (inactive) | 32.2 µM (inactive) | 16.5 µM (inactive) | 24.9 µM (inactive) | 22.6 µM (inactive) | 0.615 µM (active) | 37.3 µM (inactive) | 24.4 µM (inactive) |  | 14.5 µM (inactive) | 19.1 µM (inactive) | < 0.01 µM (active) | 23.3 µM (inactive) | 18.9 µM (inactive) | 25.4 µM (inactive) | 12.4 µM (inactive)

Reference: ChEMBL document CHEMBL1201862, “PubChem BioAssay data set” (2004)
